The values that follow come from paper PMC6684654 (Nature Communications, 2019).

Experiment [1] relates to NDM-1 E. coli XJ141015. The experiment can be described thus: MIC, broth microdilution. Type of experiment: cell-based. The following applies: MHB, 5 × 10^5 CFU/mL, 16 h, 37 °C. From the text:
(§1) MIC values were identified through microdilution in sterilized 96-well polypropylene microtiter plates according to the broth microdilution guideline of the Clinical and Laboratory Standards Institute[30]. The test medium was Mueller–Hinton broth (MHB), and the strain concentrations were adjusted to 5 × 10^5 CFU/mL.
For orientation: In broth dilution the organism is exposed to a series of concentrations in liquid medium.

Experiment [2] relates to NDM-1 E. coli XJ141026. The experiment can be described thus: MIC, broth microdilution. Type of experiment: cell-based. The following applies: MHB, 5 × 10^5 CFU/mL, 16 h, 37 °C.
Description: as §1

Experiment [3] relates to NDM-1 E. coli XJ141047. Description: MIC, broth microdilution. The following applies: MHB, 5 × 10^5 CFU/mL, 16 h, 37 °C. Type of experiment: cell-based.
Description: as §1

Experiment [4] relates to NDM-1 K. pneumoniae XJ155019. The experiment can be described thus: MIC, broth microdilution. Type of experiment: cell-based. The following applies: 16 h.
Description: as §1

Experiment [5] has as its system NDM-1 K. pneumoniae XJ155020. Description: MIC, broth microdilution. As to conditions: 16 h. The format is cell-based.
Description: as §1

For experiment [6], the system named is NDM-1 in E. coli XJ141026 culture supernatant. Description: NDM-1 release to culture supernatant (ELISA). The following applies: 0.8, 1.6, 3.2 μM; 6 or 12 h. The format is cell-based. On the procedure:
(§2) NDM-1 level in the filtered supernatant was measured using a specific ELISA kit (Shanghai Enzyme-linked Biotechnology Co., Ltd., China) and western blot analysis. Imipenem hydrolysis in the filtered supernatant at 6 h was monitored using a Biotek powerwave HT microplate spectrophotometer at 30 °C by determining the changes in absorbance at 300 nm, with a final substrate concentration of 100 μM.
For orientation: In an ELISA, binding on a coated surface is turned into a signal by an enzyme label.

The subject of experiment [7] is NDM-1 in E. coli XJ141026. Description: NDM-1 levels in supernatants and cell precipitates (western blot). The format is cell-based. As to conditions: 0.8, 1.6, 3.2 μM; 6 h. On the procedure: as §2
Soluble total protein concentration was determined and normalized with the Pierce BCA Protein Assay Kit (Thermo Fisher Scientific, Waltham, MA, USA). NDM-1 levels in the cells were measured by SDS-PAGE followed by western blot analysis. The primary antibody against NDM-1 was obtained from Detai Bio-Tech Co., Ltd. by immunizing New Zealand white rabbits with purified NDM-1 protein and further detected by horseradish peroxidase-conjugated anti-rabbit secondary antibody (Santa Cruz Biotechnology Inc., USA). Anti-GroEL antibody (Abcam, ab82592) was used to verify protein loading transferred to the membranes. To clearly normalize the levels of NDM-1, we investigated the two proteins on the same membrane. […] Protein band intensities were quantified from polyvinylidene difluoride membranes with ImageJ software.
In general terms: A western blot detects proteins with antibodies after separation by electrophoresis.

Experiment [8] concerns NDM-1 in E. coli XJ141026 supernatant. The experiment can be described thus: Imipenem hydrolysis by culture supernatant. Type of experiment: biochemical. As to the method:
as §2

In experiment [9] the test system is NDM-1 in E. coli XJ141026 cell precipitates. Description: Imipenem hydrolysis by cell precipitates. The format is biochemical. The following applies: 100 μM imipenem (50 μL of 200 μM), 30 °C; treated 6 h.
Description: The cell pellet was washed and resuspended in 20 mM Tris-HCl (pH = 7.4) to evaluate imipenem hydrolysis in bacterial cell precipitates. The concentrations were equalized by adjusting the absorbance values to OD600 = 0.3 in the same buffer. After 50 μL of the diluted bacterial cell suspension was transferred to a 96-well plate, 50 μL of 200 μM imipenem was added to measure the hydrolytic activity of NDM-1 and 50 μL of 20 mM Tris-HCl (pH = 7.4) was added as blank. The assays were monitored at 300 nm by using a Biotek powerwave HT microplate spectrophotometer at 30 °C. Data were corrected by subtracting the absorbance values obtained from the blanks.
The next experiment deals with apo-NDM-1 (Klebsiella pneumoniae, UniProt C7C422). The format is binding. As to conditions: 50 mM HEPES pH 7.4, 0.05% Tween-20, RED-tris-NTA label, triplicate.
For experiment [10], the target named is T1, NDM-1 (Klebsiella pneumoniae, UniProt C7C422). As to conditions: cited from earlier work. From the text: NDM-1 inhibitors, which antagonize multiple subtypes of metallo-β-lactamases and protect β-lactam antibiotics from being hydrolyzed, have been widely studied for synergistic application with β-lactam antibiotics to restore their bactericidal effects[15],[25],[26]. The most common mechanism of metallo-β-lactamase inhibitors is metal ion binding.

Experiment [11] relates to E. coli ATCC25922. Description: MIC, broth microdilution. The format is cell-based. As to conditions: Escherichia coli, ATCC25922; MHB, 5 × 10^5 CFU/mL, 16 h, 37 °C; read-out: MIC.
Description: as §1

The test system of a further experiment is E. coli ATCC35218. Description: MIC, broth microdilution. The format is cell-based. The following applies: Escherichia coli, ATCC35218; MHB, 5 × 10^5 CFU/mL, 16 h, 37 °C; read-out: MIC.
Description: as §1

Experiment [12] relates to K. pneumoniae ATCC13883. The experiment can be described thus: MIC, broth microdilution. Type of experiment: cell-based. As to conditions: Klebsiella pneumoniae, ATCC13883; MHB, 5 × 10^5 CFU/mL, 16 h, 37 °C; read-out: MIC.
Description: as §1

The subject of experiment [13] is NDM-1 K. pneumoniae XJ155017. Description: MIC, broth microdilution. Type of experiment: cell-based. The following applies: Klebsiella pneumoniae; MHB, 5 × 10^5 CFU/mL, 16 h, 37 °C; read-out: MIC.
Description: as §1

Experiment [14] deals with NDM-1 K. pneumoniae XJ155018. The experiment can be described thus: MIC, broth microdilution. Type of experiment: cell-based. As to conditions: Klebsiella pneumoniae; MHB, 5 × 10^5 CFU/mL, 16 h, 37 °C; read-out: MIC.
Description: as §1

For experiment [15], the system named is E. coli ATCC25922. The experiment can be described thus: Antibiotic susceptibility (MIC), automated identification system. The following applies: Supplementary Table 1. Type of experiment: cell-based. Put shortly:
(§3)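 Strains are typed by automated instrument, which also gives a rapid resistance screen; presence of the blaNDM-1 gene is then verified on purified genomic DNA by qPCR using a cut-off of Ct < 37.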

Experiment [16] relates to K. pneumoniae ATCC13883. Described as above. The format is cell-based. As to conditions: Supplementary Table 2. Put shortly: as §3
Experiment [17] relates to NDM-1 E. coli XJ141015. The experiment is described as above. The format is cell-based. The following applies: Supplementary Table 1. Summed up:
as §3

For experiment [18], the system named is NDM-1 E. coli XJ141026. The experiment is described as above. Type of experiment: cell-based. The following applies: Supplementary Table 1. Put shortly:
as §3

Experiment [19] deals with NDM-1 E. coli XJ141047. The experiment is described as above. Type of experiment: cell-based. As to conditions: Supplementary Table 1. Summed up:
as §3

Experiment [20] deals with NDM-1 K. pneumoniae XJ155017. The description is as above. As to conditions: Supplementary Table 2. Type of experiment: cell-based. Summed up: as §3
Experiment [21] has as its system NDM-1 K. pneumoniae XJ155018. The description is as above. Type of experiment: cell-based. The following applies: Supplementary Table 2. Summed up: as §3
Experiment [22] relates to NDM-1 K. pneumoniae XJ155019. The experiment is described as above. The format is cell-based. As to conditions: Supplementary Table 2. Put shortly: as §3
Experiment [23] has as its system NDM-1 K. pneumoniae XJ155020. The description is as above. The format is cell-based. As to conditions: Supplementary Table 2. Put shortly: as §3
Experiment [24] relates to seven NDM-1-producing strains. The experiment can be described thus: Checkerboard assay / FIC, summary. As to conditions: in combination with thanatin. Type of experiment: cell-based, E. coli; K. pneumoniae. As to the method:
Synergy in vitro was assessed by checkerboard assays. […] Following incubation, the synergistic/additive effect was determined by calculating the FIC indices (FICI) according to the formula: FICI = (MIC of A in combination/MIC of A) + (MIC of B in combination/MIC of B). The synergy or additive was defined according to standard criteria (FICI ≤ 0.5 was defined as synergistic; 0.5 < FICI ≤ 1 was defined as additive; 1 < FICI ≤ 4 was defined as indifference; FICI > 4 was defined as antagonism)[39].

The subject of experiment [25] is NDM-1-producing E. coli XJ141026. The experiment can be described thus: Bactericidal activity of combination treatment. The format is cell-based. As to conditions: Imp 25 μM, Tha 0.4 μM, alone or combined, 16 h, listed as Imp. On the procedure:
The kill curves were determined as mentioned above to investigate the bactericidal activity of the combination treatment. […] CFUs were counted.

The target of experiment [26] is T1, NDM-1. As to conditions: NDM-1/Imipenem.
Description: The change in absorbance at 300 nm was monitored for 30 min in 96-well plates at 30 °C. The initial rate of reaction for each inhibitor concentration was calculated from the slope of the initial linear phase of the respective time course. The IC50 value was obtained by plotting the residual enzyme activity on imipenem (%) vs. inhibitor concentration (log10). […] The best fits were obtained with the competitive inhibition model by using the equation V0 = (Vmax × [S]) / (Km × (1 + [I] / Ki) + [S]). […] The kinetics parameters Km/Vmax/Kcat were calculated by fitting the data into the double reciprocal Lineweaver–Burk plots. GraphPad 5.0 was used for data analysis.
The target of experiment [27] is T1, NDM-1. As to conditions: reported Km for imipenem; ref 15 (Yuan Q, He L, Ke H, 2012); cited from earlier work.
Where [28] appears, read: Escherichia coli, read-out: MIC.

Converted amounts (≈) assume the structure as drawn. “And” between values parts separate entries of the source, which are not always exact repeats. Equal values may be shown once. Read-outs that look alike come from different tables or passages of the source. Bounds are passed on as bounds.

T1 sequence (C7C422 20-270, looked up, natural form): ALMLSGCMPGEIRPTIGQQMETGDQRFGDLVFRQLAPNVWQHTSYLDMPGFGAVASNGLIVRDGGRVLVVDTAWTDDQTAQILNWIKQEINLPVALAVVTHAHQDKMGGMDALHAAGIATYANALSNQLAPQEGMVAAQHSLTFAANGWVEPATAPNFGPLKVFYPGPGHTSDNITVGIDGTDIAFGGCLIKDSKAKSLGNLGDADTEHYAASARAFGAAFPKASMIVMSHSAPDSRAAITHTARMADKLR
Sequence of apo-NDM-1 (C7C422 20-270, looked up, natural form): as above
Description for apo-NDM-1: Briefly, apo-NDM-1 was derived from the purified NDM-1 obtained above by the two rounds of dialysis against 100 volumes of 10 mM HEPES, 200 mM NaCl, and 20 mM EDTA at pH = 7.4 over a 12 h period under stirring. EDTA was removed from the resulting apoenzyme solution by three dialysis steps against 200 volumes of 10 mM HEPES, 1 M NaCl, pH = 7.4, Chelex 100 and finally three dialysis steps against 200 volumes of 50 mM HEPES, 200 mM NaCl, pH = 7.4, and Chelex 100. All buffer solutions used to prepare the apoenzymes were treated by stirring with Chelex 100 (Bio-Rad). Zinc content in the apoprotein samples was checked using ICP-MS, and apo-NDM-1 contains less than 0.2 molar equivalents of zinc ion.
Apo-NDM-1 carrying a polyhistidine-tag (His-tag) was labeled with the RED-tris-NTA second-generation dye for 30 min at room temperature in the dark according to the manufacturer’s instructions (Monolith His-tag Labeling Kit RED-tris-NTA 2nd generation, Nanotemper Technologies GmbH). […] Then, 100 nM labeled NDM-1 protein was added to the serial dilution of the compound in a 1:1 volume ratio. After incubation for 30 min at room temperature, the samples were examined with Monolith NT.115 in Premium Capillaries (MO-K025) at medium MST power and 5% LED/excitation power. Kd values were determined using the Monolith Affinity Analysis Kd fit from triplicate experiments.

The term MIC denotes the lowest concentration that inhibits growth of the organism. By Kd is commonly meant the equilibrium constant for the complex coming apart. Low readings indicate tighter binding, high ones weaker binding. Consider Colistin, for which the MIC in the experiment with NDM-1 E. coli XJ141015 [1] worked out at 1.7 µM; in the experiment on NDM-1 E. coli XJ141026 [2], 0.85 µM; against NDM-1 E. coli XJ141047 [3], 1.7 µM; in [4] (MHB, 5 × 10^5 CFU/mL, 37 °C) it was 6.8 µM; in experiment [5] (MHB, 5 × 10^5 CFU/mL, 37 °C) it was 6.8 µM. In addition, the “NDM-1 release into solution” value in [6] is “causing the release of NDM-1 into the solution in a time- and concentration-dependent manner”. Also, the “NDM-1 level in cell precipitates” value in experiment [7] is reported as “decreased”. Further, the “hydrolysis of imipenem by supernatant” value in experiment [8] (100 μM imipenem, 30 °C, treated 6 h) is “strong hydrolytic activity to imipenem”. Further, the “effect on NDM-1 activity” value in experiment [8] (Discussion) was “almost no effect on NDM-1 activity”. Besides, in experiment [9], the “hydrolysis rate of precipitates” value is recorded as “consistently decreased with increasing thanatin or colistin concentration”. For the same compound, on apo-NDM-1, binding was characterised by a dissociation constant (Kd) of 61.7 ± 4.92 µM.
Consider `N[C@H](CN[C@H](CN[C@@H](CC(=O)O)C(=O)O)C(=O)O)C(=O)O` [aspergillomarasmine A], for which the “NDM-1 inhibition in words” value at NDM-1 [10] is given as “inhibits the NDM-1 protease activity by chelating zinc ions from the active site”.
The term Km denotes the concentration of substrate that gives half-maximal velocity. As usually defined, the Vmax is the top rate of the reaction or transport when substrate is in excess. Consider `C[C@@H](O)[C@H]1C(=O)N2C(C(=O)O)=C(SCCN=CN)C[C@H]12` [Imipenem], for which the MIC was under 0.125 µg/mL in the experiment on E. coli ATCC25922 [11]; under 0.125 µg/mL with E. coli ATCC35218; under 0.125 µg/mL with K. pneumoniae ATCC13883 [12]; 16 µg/mL in the experiment on NDM-1 E. coli XJ141015 [1] (setting [28]); 16 µg/mL in the experiment on NDM-1 E. coli XJ141026 [2] (setting [28]); 32 µg/mL with NDM-1 E. coli XJ141047 [3] (setting [28]). Also, the MIC is over 256 µg/mL in [13]; 32 µg/mL (≈ 107 µM) in experiment [14]; 128 µg/mL in experiment [4] (Klebsiella pneumoniae); 128 µg/mL in experiment [5] (Klebsiella pneumoniae); at most 1 µg/mL against E. coli ATCC25922 [15] (Escherichia coli, ATCC25922); at most 1 µg/mL in the experiment on K. pneumoniae ATCC13883 [16] (Klebsiella pneumoniae, ATCC13883). Further, the MIC (in the experiment on NDM-1 E. coli XJ141015 [17] (Escherichia coli); with NDM-1 E. coli XJ141026 [18] (Escherichia coli); in the experiment on NDM-1 E. coli XJ141047 [19] (Escherichia coli); in experiment [20] (Klebsiella pneumoniae); in [21] (Klebsiella pneumoniae); in experiment [22] (Klebsiella pneumoniae)) was over 8 µg/mL in each case. In [23] (Klebsiella pneumoniae), this compound came in with an MIC of over 8 µg/mL. Moreover, the “susceptibility class (MIC)” value is recorded as “S” with E. coli ATCC25922 [15]; “S” with K. pneumoniae ATCC13883 [16]; “R” with NDM-1 E. coli XJ141015 [17]; “R” in the experiment on NDM-1 E. coli XJ141026 [18]; “R” in the experiment with NDM-1 E. coli XJ141047 [19]; “R” in [20]. The “susceptibility class (MIC)” value in [21], in experiment [22] and in experiment [23] was “R” throughout. For the same compound, the “FIC indices, all seven strains” value in experiment [24] is reported as at most 1. Moreover, the effect of combination result in experiment [24] is recorded as “synergistic or additive”. Also, the bacterial count in experiment [25] (replicate 1) was 2.00E+11 CFU/mL and 11.30 Log10(CFU/mL); in experiment [25] (replicate 2) it was 9.50E+11 CFU/mL and 11.98 Log10(CFU/mL); in experiment [25] (replicate 3) it was 7.41E+10 CFU/mL and 10.87 Log10(CFU/mL); in experiment [25] (replicate 4), 5.75E+11 CFU/mL and 11.76 Log10(CFU/mL). The Kcat on NDM-1 [26] was determined as 130.40 ± 2.67 s⁻¹. The Km at NDM-1 [26] was 104 µM; on NDM-1 [27], 94 µM. Also, on NDM-1 [26], the Vmax was found to be 0.13 ± 0.03 µM/s.
